{"source": "patent US20020137780A1", "about": "“Differentiating agents for the treatment of inflammatory intestinal diseases” (priority 1995, published 2002)", "key": {"IL-8 mRNA": {"test_system": "IL-8 mRNA", "test": "Inhibition of IL-1β stimulated IL-8 gene expression in Caco-2 cells (Northern blot)", "format": "cell-based", "protocol": "Caco-2 cells (American Type Culture Collection, Rockville, Maryland) were plated at a density of 4×10^4 cells per cm^2 in 10 cm dishes containing Dulbecco's modified Eagle's medium (DMEM) with 10% fetal bovine serum and penicillin/streptomycin as described by Wu et al., J. Biol. Chem., 1992, 267:7863-7870 and Traber et al., Mol. Cell. Biol., 1992, 12:3614-3627. At days 5 (pre-confluent state) and 18 (post-confluent state) the cells were stimulated with complete medium containing 5 ng/ml of IL-1β (R and D Systems, Minneapolis, MN). Total RNA was isolated from these cells 2 and 4 hours after the addition of IL-1 containing medium as well as from a control cell population not treated with IL-1β in accordance with procedures described by Chomczynski, P. and Sacchi, N., Anal. Biochem., 1987, 162:156-159. Ten micrograms of RNA for each sample was electrophoretically separated, transferred to a nylon membrane, and UV crosslinked in accordance with procedures described by Traber et al., Am. J. Physiol., 1992, 262:G123-G130. A cDNA probe for IL-8 was prepared by RT-PCR of total RNA from Caco-2 cells stimulated with IL-1 for 2 hours. Random hexamers were used for reverse transcription of the RNA using reaction conditions similar to those described by Wu et al., Gastroenterology, 1993, 105:837-844. A 277 bp cDNA was amplified from the RT reaction by PCR using the 5′ primer IL-8(+103) and the 3′ primer IL-8(EX4), cloned using a TA-vector (Marchuk et al., Nuc. Acids Res., 1991, 19:1154), and labeled with ^32p using a Random Primers DNA labeling System (Gibco BRL, Gaithersburg, Md.). Hybridization of the Northern blots were performed using conditions as described by Huang et al., Mol. Endo., 1993, 7:1391-1398."}, "Caco-2 cells [1]": {"test_system": "Caco-2 cells", "settings": "concentrations of 10-8 and 10-9; cited from earlier work"}, "[2]": {"test_system": "murine erythroleukemia cells", "settings": "in vitro; cited from earlier work"}, "[3]": {"test_system": "alkaline phosphatase mRNA", "test": "Induction of alkaline phosphatase mRNA, marker for intestinal epithelial cell differentiation, in Caco-2 cells", "format": "cell-based"}, "Caco-2 cells [4]": {"test_system": "Caco-2 cells", "test": "Caco-2 cell toxicity / cell death during treatment with differentiating agents"}, "[5]": {"settings": "e.g. six premature infants fed butyrates for 4 days at about 20 mmol/kg/day; cited from earlier work"}, "cell proliferation": {"test_system": "cell proliferation", "settings": "same dose; cited from earlier work"}, "[6]": {"settings": "orally or intraperitoneally, 26.5 mmole/kg; cited from earlier work"}}}
{"molecule": "C=C1/C(=C\\C=C2/CCC[C@]3(C)[C@@H]([C@H](C)CCCC(C)(C)O)CC[C@@H]23)C[C@@H](O)C[C@@H]1O", "note": "[1,25-(OH)2D3, 1,25-dihydroxyvitamin D3]", "values": [{"measurement": "steady state IL-8 mRNA expression", "setting": "IL-8 mRNA; concentrations of 10-8 and 10-9, IL-1β 5 ng/ml for 2 hours", "result": "decrease"}, {"measurement": "Caco-2 cell proliferation", "setting": "Caco-2 cells [1]", "result": "inhibit"}, {"measurement": "markers of intestinal epithelial differentiation", "setting": "Caco-2 cells [1]", "result": "induce"}]}
{"molecule": "CCCC(=O)O", "note": "[butyric acid]", "values": [{"measurement": "erythroid differentiation of erythroleukemia", "setting": "[2]", "result": "induced"}]}
{"molecule": "CCCC(=O)OCC(O)CO", "note": "(centres unmarked) [monobutyrin]", "values": [{"measurement": "erythroid differentiation of erythroleukemia", "setting": "[2]", "result": "induced"}, {"measurement": "potency relative to butyric acid on a molar basis", "setting": "[2]", "result": "much less potent"}]}
{"molecule": "CCCC(=O)[O-].[Na+]", "note": "[sodium butyrate]", "values": [{"measurement": "concentration of maximal inhibition of IL-8 mRNA expression", "setting": "IL-8 mRNA; Caco-2 cells, IL-1β 5 ng/ml for 2 hours", "result": 2.5, "unit": "mM"}, {"measurement": "steady state levels of IL-8 mRNA", "setting": "IL-8 mRNA; sodium butyrate 0.1 to 2.5 mM, 3 days, IL-1β 5 ng/ml for 2 hours", "result": "dose dependent reduction"}, {"measurement": "expression of IL-8 mRNA", "setting": "IL-8 mRNA; sodium butyrate at concentrations higher than 2.5 mM", "result": "increased expression"}, {"measurement": "mRNA for alkaline phosphatase", "setting": "[3]; sodium butyrate 2.5 mM", "result": "induction"}, {"measurement": "concentration causing significant toxicity and cell death", "setting": "Caco-2 cells [4]; Caco-2 cells", "result": "higher than 2.5 mM"}, {"measurement": "tolerance by Caco-2 cells / cell death", "setting": "Caco-2 cells [4]; sodium butyrate 0.1 to 2.5 mM", "result": "well-tolerated by Caco-2 cells without any evidence of cell death"}]}
{"molecule": "CCC(=O)[O-].[Na+]", "note": "[sodium propionate]", "values": [{"measurement": "IL-8 mRNA expression", "setting": "IL-8 mRNA; sodium propionate 0.1 to 20 mM, IL-1β 5 ng/ml for 2 hours", "result": "inhibited IL-8 mRNA expression in a dose dependent fashion"}, {"measurement": "alkaline phosphatase mRNA expression", "setting": "[3]; sodium propionate 0.1 to 20 mM", "result": "induction"}, {"measurement": "cell toxicity or death", "setting": "Caco-2 cells [4]; maximum concentration studied, 20 mM", "result": "did not lead to cell toxicity or death"}]}
{"molecule": "CCCC(=O)OCC(COC(=O)CCC)OC(=O)CCC", "note": "[tributyrin]", "values": [{"measurement": "erythroid differentiation of erythroleukemia", "setting": "[2]", "result": "induced"}, {"measurement": "potency relative to butyric acid on a molar basis", "setting": "[2]", "result": "3- to 4 fold"}, {"measurement": "concentration giving identical biological response, relative to sodium butyrate", "setting": "IL-8 mRNA; in vitro, differentiation and inhibition of IL-8 gene expression", "result": "one third"}, {"measurement": "tolerability in humans", "setting": "[5]", "result": "well tolerated"}, {"measurement": "effectiveness in inhibiting cell proliferation relative to sodium butyrate", "setting": "cell proliferation", "result": "only as effective as sodium butyrate"}, {"measurement": "toxicity in mice", "setting": "[6]", "result": "No toxicity"}]}
{"molecule": "phenylacetate", "values": [{"measurement": "IL-8 mRNA expression", "setting": "IL-8 mRNA; phenylacetate 2.5 to 10 mM, IL-1β 5 ng/ml for 2 hours", "result": "Dose dependent inhibition"}, {"measurement": "Caco-2 cell toxicity", "setting": "Caco-2 cells [4]; any concentration of phenylacetate studied (2.5 to 10 mM)", "result": "no evidence of Caco-2 cell toxicity"}]}
